The source of these data is patent US8680108B2, “Substituted fused aryl and heteroaryl derivatives as PI3K inhibitors” (Incyte Corporation, priority 2009, dated 2014).

The structures appear in SMILES notation.

One assay deals with T1, PI3Kδ (p110δ/p85α) (Homo sapiens, UniProt O00329).
T1 construct: purchased Millipore (Bedford, Mass.)
T1 sequence (O00329 whole entry): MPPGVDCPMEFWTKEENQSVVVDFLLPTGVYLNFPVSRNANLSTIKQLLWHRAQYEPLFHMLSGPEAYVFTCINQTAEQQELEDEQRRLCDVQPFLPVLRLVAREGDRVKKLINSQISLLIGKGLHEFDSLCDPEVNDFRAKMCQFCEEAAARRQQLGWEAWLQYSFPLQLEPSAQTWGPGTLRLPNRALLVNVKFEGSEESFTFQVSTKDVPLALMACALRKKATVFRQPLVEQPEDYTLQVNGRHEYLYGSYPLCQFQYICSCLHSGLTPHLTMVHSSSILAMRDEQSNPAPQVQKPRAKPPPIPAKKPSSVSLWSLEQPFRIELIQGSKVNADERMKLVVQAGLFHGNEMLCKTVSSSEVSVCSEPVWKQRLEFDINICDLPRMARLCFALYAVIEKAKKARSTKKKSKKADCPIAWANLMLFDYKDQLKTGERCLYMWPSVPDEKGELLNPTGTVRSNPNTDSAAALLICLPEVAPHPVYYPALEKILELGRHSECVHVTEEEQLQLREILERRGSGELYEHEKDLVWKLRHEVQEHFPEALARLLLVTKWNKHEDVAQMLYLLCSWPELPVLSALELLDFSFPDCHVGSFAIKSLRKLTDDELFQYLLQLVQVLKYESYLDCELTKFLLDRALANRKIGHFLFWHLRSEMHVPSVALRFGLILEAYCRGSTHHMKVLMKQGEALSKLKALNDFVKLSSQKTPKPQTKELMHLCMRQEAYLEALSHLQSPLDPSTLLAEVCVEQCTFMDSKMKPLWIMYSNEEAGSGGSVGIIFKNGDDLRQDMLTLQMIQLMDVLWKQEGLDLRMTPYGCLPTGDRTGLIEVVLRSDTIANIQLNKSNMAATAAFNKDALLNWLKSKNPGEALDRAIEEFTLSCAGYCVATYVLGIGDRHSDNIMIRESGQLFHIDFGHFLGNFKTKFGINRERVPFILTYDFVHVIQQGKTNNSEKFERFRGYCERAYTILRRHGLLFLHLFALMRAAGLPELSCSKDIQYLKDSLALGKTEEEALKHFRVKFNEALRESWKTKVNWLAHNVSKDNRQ
T1 sequence (P27986 whole entry partner): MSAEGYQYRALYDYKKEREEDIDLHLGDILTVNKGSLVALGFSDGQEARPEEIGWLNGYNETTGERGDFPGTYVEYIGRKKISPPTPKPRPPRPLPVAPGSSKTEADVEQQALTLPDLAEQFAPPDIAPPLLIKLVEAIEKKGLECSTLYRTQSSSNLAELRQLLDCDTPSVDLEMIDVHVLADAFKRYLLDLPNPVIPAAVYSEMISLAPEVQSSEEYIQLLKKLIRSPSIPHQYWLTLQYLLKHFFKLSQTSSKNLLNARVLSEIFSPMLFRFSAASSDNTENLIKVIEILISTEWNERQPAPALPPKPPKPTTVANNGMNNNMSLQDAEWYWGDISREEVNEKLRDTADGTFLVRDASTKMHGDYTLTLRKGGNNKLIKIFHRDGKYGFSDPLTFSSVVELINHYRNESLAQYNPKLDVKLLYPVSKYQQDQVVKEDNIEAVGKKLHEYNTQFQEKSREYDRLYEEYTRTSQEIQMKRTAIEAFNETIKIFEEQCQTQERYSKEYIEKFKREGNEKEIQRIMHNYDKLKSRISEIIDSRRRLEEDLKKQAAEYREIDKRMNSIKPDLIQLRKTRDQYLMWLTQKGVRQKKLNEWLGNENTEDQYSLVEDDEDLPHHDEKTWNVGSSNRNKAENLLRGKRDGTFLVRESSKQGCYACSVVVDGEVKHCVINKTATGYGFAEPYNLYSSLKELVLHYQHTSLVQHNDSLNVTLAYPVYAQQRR
The experiment in a line: PI3Kδ scintillation proximity assay. The assay is classed as biochemical.
Settings: not given
The text has this: Materials: [γ-^33P]ATP (10 mCi/mL) was purchased from Perkin-Elmer (Waltham, Mass.). Lipid kinase substrate, D-myo-Phosphatidylinositol 4,5-bisphosphate (PtdIns(4,5)P2)D (+)-sn-1,2-di-O-octanoylglyceryl, 3-O-phospho linked (PIP2), CAS 204858-53-7, was purchased from Echelon Biosciences (Salt Lake City, Utah). PI3Kδ (p110δ/p85α) was purchased from Millipore (Bedford, Mass.). ATP, MgCl2, DTT, EDTA, MOPS and CHAPS were purchased from Sigma-Aldrich (St. Louis, Mo.). Wheat Germ Agglutinin (WGA) YSi SPA Scintillation Beads was purchased from GE healthcare life sciences (Piscataway, N.J.).
Assay: The kinase reaction was conducted in polystyrene 384-well matrix white plate from Thermo Fisher Scientific in a final volume of 25 μL. Inhibitors were first diluted serially in DMSO and added to the plate wells before the addition of other reaction components. The final concentration of DMSO in the assay was 0.5%. The PI3K assays were carried out at room temperature in 20 mM MOPS, pH 6.7, 10 mM MgCl2, 5 mM DTT and CHAPS 0.03%. Reactions were initiated by the addition of ATP, the final reaction mixture consisted of 20 μM PIP2, 20 μM ATP, 0.2 μCi [γ-^33P] ATP, 4 nM PI3Kδ. Reactions were incubated for 210 minutes and terminated by the addition of 40 μL SPA beads suspended in quench buffer: 150 mM potassium phosphate pH 8.0, 20% glycerol. 25 mM EDTA, 400 μM ATP. The final concentration of SPA beads is 1.0 mg/mL. After the plate sealing, plates were shaken overnight at room temperature and centrifuged at 1800 rpm for 10 minutes, the radioactivity of the product was determined by scintillation counting on Topcount (Perkin-Elmer). IC50 determination was performed by fitting the curve of percent control activity versus the log of the inhibitor concentration using the GraphPad Prism® 3.0 software.
A general note: SPA uses beads or plates that emit light when radiolabelled molecules are held near them.
The term IC50 denotes the concentration needed to halve the response being measured. Read a high IC50 as weaker potency. `CC(Nc1ncnc2[nH]cnc12)c1cc(Cl)c2cccnc2c1N1CCC(CCO)CC1` (centres unmarked) [Example 73, 2-(1-{5-Chloro-7-[1-(9H-purin-6-ylamino)ethyl]quinolin-8-yl}piperidin-4-yl)ethanol bis(trifluoroacetate)] yielded a 50% inhibitory concentration (IC50) of 100 to 250 nM. On the same count and under the same terms, in the case of `CC(Nc1ncnc2[nH]cnc12)c1cc(Cl)c2cccnc2c1N1CCN(Cc2ccncc2)CC1` (centres unmarked) [Example 74, N-(1-{5-Chloro-8-[4-(pyridin-4-ylmethyl)piperazin-1-yl]quinolin-7-yl}ethyl)-9H-purin-6-amine tris(trifluoroacetate)] it was less than 50 nM; in that of `CC(Nc1ncnc2[nH]cnc12)c1cc(Cl)c2cccnc2c1N1CCC(NS(C)(=O)=O)CC1` (centres unmarked) [Example 81, N-(1-{5-Chloro-7-[1-(9H-purin-6-ylamino)ethyl]quinolin-8-yl}piperidin-4-yl)methanesulfonamide bis(trifluoroacetate)], 100 to 250 nM. In turn, `CC(=O)NC1CCN(c2c(C(C)Nc3ncnc4[nH]cnc34)cc(Cl)c3cccnc23)CC1` (centres unmarked) [Example 82, N-(1-{5-Chloro-7-[1-(9H-purin-6-ylamino)ethyl]quinolin-8-yl}piperidin-4-yl)acetamide bis(trifluoroacetate)] yielded an IC50 of less than 50 nM. In turn, `COC(=O)NC1CCN(c2c(C(C)Nc3ncnc4[nH]cnc34)cc(Cl)c3cccnc23)CC1` (centres unmarked) [Example 83, Methyl(1-{5-Chloro-7-[1-(9H-purin-6-ylamino)ethyl]quinolin-8-yl}piperidin-4-yl)carbamate bis(trifluoroacetate)] came in with a concentration for half-maximal inhibition (IC50) of less than 50 nM.

With `CC(Nc1ncnc2[nH]cnc12)c1cc(Cl)c2cccnc2c1N1CCN(C(=O)C2CC2)CC1` (centres unmarked) [Example 84, N-(1-{5-Chloro-8-[4-(cyclopropylcarbonyl)piperazin-1-yl]quinolin-7-yl}ethyl)-9H-purin-6-amine bis(trifluoroacetate)], the 50% inhibitory concentration (IC50) was less than 50 nM.

Regarding `COC(=O)N1CCN(c2c(C(C)Nc3ncnc4[nH]cnc34)cc(Cl)c3cccnc23)CC1` (centres unmarked) [Example 85, Methyl 4-{5-Chloro-7-[1-(9H-purin-6-ylamino)ethyl]quinolin-8-yl}piperazine-1-carboxylatebis(trifluoroacetate)], the 50% inhibitory concentration (IC50) was less than 50 nM. Consider `CC(Nc1ncnc2[nH]cnc12)c1cc(Cl)c2cccnc2c1N1CCN(C(=O)C2CCC2)CC1` (centres unmarked) [Example 86, N-(1-{5-Chloro-8-[4-(cyclobutylcarbonyl)piperazin-1-yl]quinolin-7-yl}ethyl)-9H-purin-6-amine bis(trifluoroacetate)], for which the IC50 is less than 50 nM. On the same count and under the same terms, with `COCC(=O)N1CCN(c2c(C(C)Nc3ncnc4[nH]cnc34)cc(Cl)c3cccnc23)CC1` (centres unmarked) [Example 87, N-(1-{5-Chloro-8-[4-(methoxyacetyl)piperazin-1-yl]quinolin-7-yl}ethyl)-9H-purin-6-amine bis(trifluoroacetate)] the figure was less than 50 nM; with `CC(Nc1ncnc2[nH]cnc12)c1cc(Cl)c2cccnc2c1N1CCN(C(=O)N(C)C)CC1` (centres unmarked) [Example 88, 4-{5-Chloro-7-[1-(9H-purin-6-ylamino)ethyl]quinolin-8-yl}-N,N-dimethylpiperazine-1-carboxamide bis(trifluoroacetate)], less than 50 nM.

The assay is the same for the next values; noted with them: separated isomer, 1st peak.
In turn, `CC(Nc1ncnc2[nH]cnc12)c1cc(Cl)c2cccnc2c1N1CCC(c2ccccc2)C1` (centres unmarked) [Example 76, N-{1-[5-Chloro-8-(3-phenylpyrrolidin-1-yl)quinolin-7-yl]ethyl}-9H-purin-6-amine tris(trifluoroacetate)] yielded an IC50 of 250 to 500 nM. Molecule `CCC(=O)N[C@H]1CCN(c2c(C(C)Nc3ncnc4[nH]cnc34)cc(Cl)c3cccnc23)C1` (stereo partly drawn) [Example 77, N-((3S)-1-{5-Chloro-7-[1-(9H-purin-6-ylamino)ethyl]quinolin-8-yl}pyrrolidin-3-yl)propanamide tris(trifluoroacetate)] had an IC50 of more than 1000 nM.

Still in this assay, the particulars now being: separated isomer, 2nd peak.
Consider `CC(Nc1ncnc2[nH]cnc12)c1cc(Cl)c2cccnc2c1N1CCC(c2ccccc2)C1` (centres unmarked) [Example 76, N-{1-[5-Chloro-8-(3-phenylpyrrolidin-1-yl)quinolin-7-yl]ethyl}-9H-purin-6-amine tris(trifluoroacetate)], for which the IC50 was in the range of 250 to 500 nM. `CCC(=O)N[C@H]1CCN(c2c(C(C)Nc3ncnc4[nH]cnc34)cc(Cl)c3cccnc23)C1` (stereo partly drawn) [Example 77, N-((3S)-1-{5-Chloro-7-[1-(9H-purin-6-ylamino)ethyl]quinolin-8-yl}pyrrolidin-3-yl)propanamide tris(trifluoroacetate)]: the IC50 was less than 50 nM.
